Laboratory results: US20090041719A1, “Method for screening therapeutic agent for glomerular disorder” (priority 2006, published 2009)
Values joined by “and” are separate entries in the source; they are usually repeats but may differ in a detail not shown here. Identical values can stand only once.

Key:
4F2hc [1] = assay: HAT heavy chain 4F2hc on large-monocyte fraction of LPS-stimulated human PBMC, peak value by FACScan (polyclonal antibody); type: cell-based
Method: (§1) In the same manner as in 1) to 5) of Experimental Example 1, to human peripheral blood mononuclear cells, the test compound (6-2) (final concentration: 10 nM) or the test compound (7-3) (final concentration: 100 nM) was added at the same time when LPS (final concentration: 80 μg/ml) was added, followed by 6-day culture. Further, in the same manner as above, using rabbit anti-human 4F2hc polyclonal antibodies (see Biol Pharm Bull 30:415-422, 2007) as a primary antibody, the peak value of HAT expressed on the fraction of large-macrophages (larger than monocyte macrophages) in human PBMC was measured by FACScan using a commercially available cell fix/cell membrane infiltration kit (trade name: BD Cytofix/Cytoperm™ Kit, catalog No. 554714, BD Biosciences).
(§2) As a control, the one with no test-compound addition was used, and as a rabbit anti-human rBAT (related to b^0,+-type amino acid transporter) polyclonal antibody, the one obtained by coupling a synthesized peptide composed of an amino-terminal of human rBAT (MAEDKSKRDSIEMSMKGC (SEQ ID NO: 2)) and a carboxyl-terminal of mouse b^0,+AT (BAT1) (CHLQMLEWPEKDPE (SEQ ID NO: 3)) to a carrier KLH (keyhole-limpet hemocyanin), and immunizing a rabbit with it.

[2] = system: rat unilateral ureteral obstruction release model; assay: Rat unilateral ureteral obstruction release model: glomerular and tubulointerstitial lesions, Asc-1+ cells; type: in vivo, SD rat;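 on Tubulointerstitial lesion: atrophy of tubules associated with dilatation of tubules (score): ± very light + light ++ moderate +++ high change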;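 on Tubulointerstitial lesion: fibrosis of interstitial tissue (score): ± very light + light ++ moderate +++ high change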;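 on Tubulointerstitial lesion: thickness of basement membrane (score): ± very light + light ++ moderate +++ high change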
Source text: An experimental model was produced in accordance with the method devised and established by Ishibashi (Michio Ishibasi et al., Japanese Journal of Nephrology 42: 248, 2000), using a 8 to 9-week-old male SD rat weighing about 280 g. […] On day 14 after obstruction, the obstruction was released, and the urinary tract was reconstructed using a cuff. That is, 14 days later, the ligated ureteral obstruction part was partially removed, and a 25 gauge polyethylene tube (made by Nippon Sherwood) as a cuff was inserted from the lower normal ureteral stump and placed in the lumen. Next, the cuff was placed also in the expanded upper ureter, and both parts were ligated for fixation with a 7-0 nylon suture to reconstruct the urinary tract. At the same time, the right kidney was removed. The weight was measured after obstruction release, and the blood was collected on days 2, 5, and 7 after release for serum creatinine determination. On day 7, the rat was sacrificed under anesthesia and the left obstruction release kidney was removed. The weight of the removed kidney was measured, and the kidney pathomorphological examination was performed.
The biological effects of the test compound were studied in vivo using the model obtained in the above procedure 1). The test compound in the form of bulk powder was dissolved in sterilized physiologic saline together with gum arabic, where the concentration of the gum arabic was adjusted to 5% and the concentration of the test compound was adjusted to 30 mg/ml. The amount of 30 mg/kg was subcutaneously administered every day. Daily administration was continued for 21 days during 14 days of obstruction and 7 days after obstruction release. For controlled comparison, the solvent of 5% gum arabic was administered alone.
On day 22 from the administration of the test compound, the rat was sacrificed under anesthesia, and the left obstruction release kidney was removed and neutral formalin fixed. The fixed renal tissue embedded in paraffin was sliced into 4-micrometer-thick pieces for examination.
The tissue section was observed under a microscope in order to count the number of glomeruli and the number of glomeruli having a lesion (expansion of a tubular pole associated with swollen Bowman's capsule epithelial cells or hypertrophy of a Bowman's capsule basal membrane) in the field of view, and the number of glomeruli having the lesion (referred to as “lesioned glomerulus”) per 50 glomeruli was calculated.
As for the effectiveness to improve of glomerular lesions, when the number of lesioned glomeruli per 50 glomeruli was reduced to less than or equal to half the average number of those of the control group, it was determined as improved.
An affinity-purified anti-rat Asc-1 polyclonal antibody (rabbit) was prepared as follows: that is, in order to prepare an anti-Asc-1 peptide polyclonal antibody (rabbit), an oligopeptide (PSPLPITDKPLKTQC (SEQ. ID NO: 4)) corresponding to amino acid residues of 517-530 of Asc-1 was synthesized (see J Biol Chem (2000); 275: 9690-9698), keyhole limpet hemocyanine was bound to the C-terminal cysteine as an adjuvant, and […] was immunized therewith. The serum was collected on days 7 and 14 from the immunization. The serum was concentrated by means of an adsorption-dissociation operation using an affinity column to which an oligopeptide corresponding to amino acid residues of 517-530 of Asc-1 was bound in order to obtain an affinity-purified antibody having a protein content of 0.5 mg/ml. As for immunopathological examination, paraffin rat […] diluted with PBS to the optimal concentration was used.
The immune tissue staining was performed based on the protocol of Ventana HX system bench mark (Ventana Japan K.K., Tokyo) including the automated immunostaining device manufactured by Ventana Japan K.K. After deparaffinization, the tissue section was heat-treated at 100° C. for 1 hour. […]

[3] = system: glomerular lesions; renal tubulointerstitial lesions; conditions: International Publication WO 2004/024185 and 01/72730 pamphlets; cited from earlier work
rBAT = assay: HAT heavy chain rBAT on large-monocyte fraction of LPS-stimulated human PBMC, peak value by FACScan; type: cell-based
Method: as §1, §2

4F2hc [4] = assay: 4F2hc on large-cell fraction of LPS-stimulated THP-1, peak value by FACScan; type: cell-based, human
Method: The same procedures as in Experimental Example 2 were taken except the following conditions: human leukemia culture cell line THP-1 was used instead of the human peripheral blood mononuclear cells; the final addition concentration of the test compound (6-2) was set to 100 nM, and the final addition concentration of the test compound (7-3) was set to 1000 nM; and fetal bovine serum was used instead of the human AB serum. The peak value of HAT expressed on the fraction of large-cells in human leukemia culture cell strain THP-1, compared with those not stimulated with LPS, was measured. As a control, the one with no test-compound addition was used, and the peak value of HAT was measured by FACScan using a commercially available cell fix/cell membrane infiltration kit (trade name: BD Cytofix/Cytopem™ Kit, catalog No. 554714, BD Bioscience).

[5] = human PBMC + LPS, summary of Table 2
[6] = group average ± standard deviation
[7] = individual animal, 30 mg/kg s.c. daily for 21 days, 30 mg/kg
[8] = individual animal, points: ± 0.5, + 1, ++ 2, +++ 3

## O=C1CCC(F)(C(=O)OCc2ccccc2)O1 (centres unmarked) [Compound (6-2)]
4F2hc [1]; human PBMC + LPS 80 μg/ml, 6-day culture, test compound 10 nM, solvent control 23
  Change in HAT expressed on large-monocyte fraction of human PBMC (peak value by FACScan), 4F2hc: 10
4F2hc [1]; [5]
  amount of 4F2hc in the heavy chain of HAT (in words): selectively decreased
[2]; [6]
  Glomerular lesion: number of lesioned glomeruli per 50 glomeruli, expansion of tubular pole associated with swollen Bowman's capsule epithelial cells: 3 ± 2 per 50 glomeruli
  Glomerular lesion: number of lesioned glomeruli per 50 glomeruli, hypertrophy of Bowman's capsule basal membrane: 7 ± 2 per 50 glomeruli
  Number of Asc-1+ cells per 50 glomeruli: 8.01 ± 1.96 per 50 glomeruli
  Tubulointerstitial lesion: atrophy of tubules associated with dilatation of tubules (score): 0.90 ± 0.3
  Tubulointerstitial lesion: fibrosis of interstitial tissue (score): 1.5 ± 0.6
  Tubulointerstitial lesion: thickness of basement membrane (score): 1.5 ± 0.6
  Tubulointerstitial lesion: total score: 3.9 ± 1.0
[2]; [7]
  Glomerular lesion: number of lesioned glomeruli per 50 glomeruli, expansion of tubular pole associated with swollen Bowman's capsule epithelial cells: 2 per 50 glomeruli (2×) and 5 per 50 glomeruli and 1 per 50 glomeruli
  Glomerular lesion: number of lesioned glomeruli per 50 glomeruli, hypertrophy of Bowman's capsule basal membrane: 6 per 50 glomeruli and 9 per 50 glomeruli and 5 per 50 glomeruli and 8 per 50 glomeruli
  Number of Asc-1+ cells per 50 glomeruli: 9.40 per 50 glomeruli and 9.05 per 50 glomeruli and 5.12 per 50 glomeruli and 8.47 per 50 glomeruli
[2]; individual animal, Yes = lesioned glomeruli per 50 glomeruli reduced to less than or equal to half the control average
  Improvement of glomerular lesion: Yes (3×) and No
[2]; individual animal, Yes = reduced to less than or equal to half the control average
  Improvement of tubulointerstitial lesion: No
[2]; [8]
  Tubulointerstitial lesion: atrophy of tubules associated with dilatation of tubules (score): 1 (3×) and 0.5
  Tubulointerstitial lesion: fibrosis of interstitial tissue (score): 1 (2×) and 2 (2×)
  Tubulointerstitial lesion: thickness of basement membrane (score): 1 (2×) and 2 (2×)
[2]; individual animal, sum of the three scores
  Tubulointerstitial lesion: total score: 3 (2×) and 4.5 and 5
[2]; summary of Table 5
  glomerular lesion (in words): selectively reduced
  uriniferous tubule lesion (in words): not reduced
[2]; versus control group
  Asc-1 positive cells in the glomeruli (in words): increased more significantly than in the control group
[3]
  known action on glomerular lesions: selectively inhibit the glomerular lesions
rBAT; human PBMC + LPS 80 μg/ml, 6-day culture, test compound 10 nM, solvent control 37
  Change in HAT expressed on large-monocyte fraction of human PBMC (peak value by FACScan), rBAT: 40
rBAT; [5]
  amount of rBAT (in words): without any influence
4F2hc [4]; THP-1 + LPS 80 μg/ml, fetal bovine serum, test compound 100 nM, solvent control 12
  Change in HAT expressed on large-cell fraction of THP-1 (peak value by FACScan), 4F2hc: 25
4F2hc [4]; THP-1 + LPS, summary of Table 3
  amount of 4F2hc in the heavy chain of HAT (in words): remarkably changed
